Test results reported in ChEMBL document CHEMBL5512623, “Discovery of the novel and potent histamine H1 receptor antagonists for treatment of allergic diseases” (Eur J Med Chem, 2024).
pIC50: −log10 of the molar value.

Columns and labels:
[1] = Cmax in female Sprague-Dawley rat plasma at 10 mg/kg, IG administered as single dose; format: ADME, organism-based; settings: po
[2] = Cmax in female Sprague-Dawley rat brain at 10 mg/kg, IG administered as single dose; format: ADME, organism-based; settings: po
[3] = Cmax in male Sprague-Dawley rat plasma at 10 mg/kg, IG administered as single dose; format: ADME, organism-based; settings: po
[4] = Cmax in male Sprague-Dawley rat brain at 10 mg/kg, IG administered as single dose; format: ADME, organism-based; settings: po
[5] = target: Voltage-gated inwardly rectifying potassium channel KCNH2 (Homo sapiens, UniProt Q12809); assay: Inhibition of hERG in HEK293 cells measured after 5 mins by patch-clamp assay
Voltage-gated inwardly rectifying potassium channel KCNH2, sequence (Q12809 whole entry): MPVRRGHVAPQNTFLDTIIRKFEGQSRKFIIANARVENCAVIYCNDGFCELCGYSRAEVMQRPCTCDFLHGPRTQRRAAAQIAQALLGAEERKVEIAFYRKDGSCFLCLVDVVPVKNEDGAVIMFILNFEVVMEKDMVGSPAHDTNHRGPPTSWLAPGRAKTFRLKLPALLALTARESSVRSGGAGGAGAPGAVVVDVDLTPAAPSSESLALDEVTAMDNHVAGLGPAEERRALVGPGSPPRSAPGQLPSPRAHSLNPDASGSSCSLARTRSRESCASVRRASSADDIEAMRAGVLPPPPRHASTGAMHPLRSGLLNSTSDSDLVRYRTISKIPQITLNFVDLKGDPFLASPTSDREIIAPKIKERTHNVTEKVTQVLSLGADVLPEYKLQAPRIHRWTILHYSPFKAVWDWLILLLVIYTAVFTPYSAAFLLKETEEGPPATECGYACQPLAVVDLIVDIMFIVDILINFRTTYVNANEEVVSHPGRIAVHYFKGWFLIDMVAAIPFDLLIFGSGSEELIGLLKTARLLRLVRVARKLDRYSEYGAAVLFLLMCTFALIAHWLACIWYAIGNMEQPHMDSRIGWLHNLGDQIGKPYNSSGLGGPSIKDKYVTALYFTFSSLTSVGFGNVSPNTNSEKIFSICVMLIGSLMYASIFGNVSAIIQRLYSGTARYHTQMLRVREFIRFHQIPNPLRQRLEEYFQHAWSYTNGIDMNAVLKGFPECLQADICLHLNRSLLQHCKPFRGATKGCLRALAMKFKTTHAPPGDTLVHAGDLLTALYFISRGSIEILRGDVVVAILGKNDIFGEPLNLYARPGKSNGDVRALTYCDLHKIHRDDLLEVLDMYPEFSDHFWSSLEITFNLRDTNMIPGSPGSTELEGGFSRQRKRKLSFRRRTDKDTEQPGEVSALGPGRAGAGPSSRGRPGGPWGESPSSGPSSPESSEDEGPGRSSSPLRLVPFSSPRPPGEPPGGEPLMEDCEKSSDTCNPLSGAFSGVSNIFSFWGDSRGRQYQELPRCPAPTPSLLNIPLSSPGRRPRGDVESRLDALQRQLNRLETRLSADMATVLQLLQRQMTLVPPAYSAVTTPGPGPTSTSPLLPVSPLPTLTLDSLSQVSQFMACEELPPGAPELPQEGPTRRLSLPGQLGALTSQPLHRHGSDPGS

[6] = target: Muscarinic acetylcholine receptor M3 (Homo sapiens, UniProt P20309); assay: Antagonist activity at human muscarinic M3 receptor expressed in PathHunter U2OS CHRM3 beta-arrestin cells preincubated for 30 mins followed by agonist addition at 6 times EC80 and measured after 90 to 180 mins by PathHunter assay; format: functional, cell-based
Muscarinic acetylcholine receptor M3, sequence (P20309 whole entry): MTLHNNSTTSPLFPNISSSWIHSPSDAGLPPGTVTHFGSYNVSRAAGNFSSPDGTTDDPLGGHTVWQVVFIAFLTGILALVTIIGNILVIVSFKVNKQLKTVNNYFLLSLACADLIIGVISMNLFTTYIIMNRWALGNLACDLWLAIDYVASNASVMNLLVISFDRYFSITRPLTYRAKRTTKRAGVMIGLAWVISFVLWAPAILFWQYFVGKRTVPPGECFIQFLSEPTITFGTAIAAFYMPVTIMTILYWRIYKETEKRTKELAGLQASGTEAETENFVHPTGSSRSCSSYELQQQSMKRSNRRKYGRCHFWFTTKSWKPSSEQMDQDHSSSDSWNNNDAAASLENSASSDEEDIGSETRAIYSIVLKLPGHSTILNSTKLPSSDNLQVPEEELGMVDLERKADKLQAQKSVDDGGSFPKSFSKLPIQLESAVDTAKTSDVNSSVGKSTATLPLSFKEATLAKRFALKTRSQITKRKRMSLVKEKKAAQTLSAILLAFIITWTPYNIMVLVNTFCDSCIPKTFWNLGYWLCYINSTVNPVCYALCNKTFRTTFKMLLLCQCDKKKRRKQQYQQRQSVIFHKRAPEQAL

Histamine H1 receptor = Histamine H1 receptor (Homo sapiens, UniProt P35367); assay: Antagonist activity at human H1 receptor expressed in PathHunter CHO-K1 HRH1 beta-arrestin cells preincubated for 30 mins followed by agonist addition at 6 times EC80 and measured after 90 to 180 mins by PathHunter assay; format: functional, cell-based
Histamine H1 receptor, sequence (P35367 whole entry): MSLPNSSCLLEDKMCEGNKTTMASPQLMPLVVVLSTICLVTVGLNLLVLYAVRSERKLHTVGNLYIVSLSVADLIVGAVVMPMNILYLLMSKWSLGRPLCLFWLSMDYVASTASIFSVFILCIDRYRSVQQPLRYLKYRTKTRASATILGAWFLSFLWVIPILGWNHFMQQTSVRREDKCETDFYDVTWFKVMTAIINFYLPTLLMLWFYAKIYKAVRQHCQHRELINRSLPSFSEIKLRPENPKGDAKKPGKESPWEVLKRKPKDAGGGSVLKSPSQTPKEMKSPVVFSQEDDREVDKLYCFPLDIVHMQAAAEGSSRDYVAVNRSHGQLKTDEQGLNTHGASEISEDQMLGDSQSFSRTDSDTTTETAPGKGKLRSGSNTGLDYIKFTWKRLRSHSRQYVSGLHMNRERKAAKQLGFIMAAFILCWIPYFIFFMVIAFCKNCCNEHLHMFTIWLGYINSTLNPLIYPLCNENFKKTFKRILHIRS

Row | SMILES | pIC50 [6] | pIC50 [5] | further results
1 | Clc1ccc2c(c1)CCc1cccnc1C2=C1CCNCC1 [DESLORATADINE] |  |  | Cmax [1]: 549 ng/g; Cmax [2]: 1180 ng/g; Cmax [3]: 112 ng/g; Cmax [4]: 843 ng/g
2 | O=C(O)CC(O)CN1CCC(=C2c3ccc(Cl)cc3CCc3cccnc32)CC1 (stereo unspecified) | < 5.00 | < 4.52 | pIC50 (Histamine H1 receptor): 6.90
3 | CC(C)(C(=O)O)c1ccc(CCCN2CCC(=C3c4ccc(Cl)cc4CCc4cccnc43)CC2)c(F)c1 | < 5.00 | 4.52 | 
4 | CC(C)(C(=O)O)c1ccc(CCCN2CCC(=C3c4ccc(Cl)cc4CCc4cccnc43)CC2)nc1 | < 5.00 |  | 

More lines, main results first:

Row | pIC50 [6] | SMILES | pIC50 [5] | further results
5 | < 5.00 | CC(C)(C(=O)O)c1ccc(CCN2CCC(=C3c4ccc(Cl)cc4CCc4cccnc43)CC2)cc1 | < 4.52 | 
6 | < 5.00 | CC(C)(C(=O)O)c1ccc(CN2CCC(=C3c4ccc(Cl)cc4CCc4cccnc43)CC2)cc1 | 4.74 | 
7 | < 5.00 | CC(C)(C(=O)O)c1ccccc1CCCN1CCC(=C2c3ccc(Cl)cc3CCc3cccnc32)CC1 |  | 
8 | < 5.00 | O=C(O)c1ccc(CCCN2CCC(=C3c4ccc(Cl)cc4CCc4cccnc43)CC2)cc1 |  | 
